Literature values in patent publication US20040039052A1, “Urinary incontinence therapy” (priority 1997, published 2004).

Key:
[1] = test system: vanilloid receptor-mediated release of tachykinins in the rat urinary bladder; settings: rat urinary bladder; cited from earlier work
rat urinary bladders = settings: anesthetized rats; repeated perfusions; cited from earlier work

SMILES: C=C(C)[C@]12C[C@@H](C)[C@@]34O[C@](Cc5ccccc5)(O[C@@H]1[C@@H]3C=C(COC(=O)Cc1ccc(O)c(OC)c1)C[C@]1(O)C(=O)C(C)=C[C@@H]41)O2 [RTX, resiniferatoxin]
- desensitization to repeated doses [1]: Desensitization to repeated doses of RTX was observed
- potency relative to CAP [1]: 1000 times
- desensitizing effect of bladder perfusion (rat urinary bladders): desensitization was occurring
